Data: patent US5696263A, “Antiviral acyclic phosphonomethoxyalkylsubstituted alkenyl and alkynyl purine and pyrimidine derivatives” (Institute of Organic Chemistry and Biochemistry of the …, priority 1994, dated 1997)
Read-outs that look alike come from different tables or passages of the source.

Experiments:
[1] = XTT assay, cellular toxicity in uninfected CEM-SS cells; type: cell-based; conditions: human, cem-ss cells
Method: (§1) Compounds were evaluated for activity against human immunodeficiency virus (HIV RF strain obtained from Luc Montagnier, Institut Pasteur, Paris, France) in CEM-SS cells (P. L. Nara, et al., in AIDS Res. Human. Retroviruses, 1987, 3, 283-302) using the XTT assay described by O. S. Weislow, et al., in J. Natl. Cancer Instit., 1989, 81, 577-586. CEM-SS cells were obtained from Owen Weislow at the National Cancer Institute. Cells were exposed to HIV and cultured in microtiter plates in the presence of test compounds at concentrations of 0.32, 1, 3.16, 10, 31.6, 100, 316 and 1000 um. On day six post-infection, the antiviral effect was measured using the XTT assay in which an optical density (OD) reading is obtained at each drug concentration. The optical density reading is proportional to the number of viable cells. The relative optical density values were derived by dividing the sample observed optical density by the value obtained for the control. Assays run in infected cells show the antiviral effect of the test compounds, where an increase in the number of viable cells (higher OD reading) reflects the protective, antiviral activity of the compound. Assays run in uninfected cells provide a measure of cellular toxicity.
(§2) The antiviral effect is also expressed (see Table 1) as the concentration of compound which increases the number of viable cells in infected cultures to 50%, to that of the untreated, uninfected control cultures (ED50). The cellular toxicity is expressed as the concentration of compound which reduces the number of viable cells to 50%, to that of the untreated control (TD50). The selectivity index (SI) is the ratio of TD50 to ED50.
(§3) The anti-HIV activity and cellular toxicity of the test compounds are plotted in FIGS. 1-7 as a function of relative optical density versus increasing log concentrations of the test compounds (XTT assay). FIGS. 1-7 visually show the results of the relative anti-HIV activity of the test compounds on infected cells (--.circle-solid.--) and the cellular toxicity of the same test compound on uninfected cells (--.rect-solid.--).
(§4) ^b Toxic Dose 50: In uninfected cells, concentration of compound whic
(§5) results in a 50% decrease of viable cells.

[2] = system: human immunodeficiency virus (HIV RF strain) in CEM-SS cells; assay: XTT assay, anti-HIV RF activity in infected CEM-SS cells, six days post infection; type: cell-based; conditions: for SI (Selectivity Index: Ratio of TD50 to ED50): HIV RF; for SI (Selectivity Index: Ratio of TD50 to ED50) / EC50: CEM-SS cells; for EC50: Human immunodeficiency virus 1, CEM-SS, 144 h, HIV RF strain, XTT assay, six days post infection, read-out: ED50 (the source's name); for anti-HIV potency and selectivity as compared to the other compounds: data in Table 1; for cell protection against HIV: over a broad concentration range
Method: as §1, §2, §3
Another estimate of the effectiveness of a compound for use against HIV in the prevention and/or treatment of AIDS is a selectivity index (an in vitro "therapeutic index"), the ratio of the toxic dose 50 to the effective dose 50. The selectivity index (SI) for (RS), (R)- and (S)-2'-vinyl-PMEG and (RS), (R), (S), -2'-azidomethyl-PMEG of the instant invention and for the comparison compound PMEG are shown in Table 1.
Anti-HIV RF Activity in CEM-Cells Evaluated by XTT Assay
Six Days Post Infection
(§6) ^a Effective Dose 50: In infected cells, concentration of compound
(§7) which results in an increase in the number of viable cells to 50% to that
^c Selectivity Index: Ratio of TD50 to ED50.

CEM-SS cells [3] = assay: XTT assay, cellular toxicity in uninfected CEM-SS cells; type: cell-based; conditions: compounds evaluated with HIV LAV BRU strain (footnote e), 8640 min, read-out: TD50 (the source's name)
[4] = system: human immunodeficiency virus LA BRU strain; assay: XTT assay, anti-HIV activity with LAV BRU strain; type: cell-based; conditions: HIV LAV BRU strain (footnote e), read-out: ED50 (the source's name)
Method: as §1, §2, §6, §7
^e The compounds were evaluated using human immunodeficiency virus LA
BRU strain obtained from Luc Montagnier, Institut Pasteur, Paris, France.

CEM-SS cells [5] = assay: cell growth inhibition assay in CEM-SS cells; type: cell-based; conditions: values of Table 2
Method: (§8) The cytotoxicity of PMEG, (R)2'-vinyl-PMEG, (S)-2'-vinyl-PMEG and (R)-2'-azidomethyl-PMEG was also determined by the cell growth inhibition assay in CEM-SS cells.
(§9) *CC50 is the concentration of drug that causes a 50 percent decrease in
(§10) cell count as compared to the control at day three (72 hours).
(§11) 1. Choose proper range of the concentrations of the drug to be evaluated.
(§12) 2. Prepare the stock solutions of drugs in RPMI 1640 medium at 10× of the highest concentration needed in cell culture
(§13) 3. Make serial dilution of the 10× stock solutions with RPMI 1640 as needed, usually four different concentrations are used for each drug.
(§14) 4. Prepare CEM cell suspension at @5×10^4 cells/ml concentration
(§15) 5. To each 18 ml CEM cell suspension add 2 ml of properly diluted drug solution (from step 2 and 3) separately and mix well.
(§16) 6. For cell control, 2 ml of RPMI 1640 is added in place of the drug solutions.
(§17) 7. Two ml of the solutions from step 5 and 6 are dispensed in to the wells of 24-well plate as shown in the following diagram [drawing 14] 8. At time zero, cells in 4 wells from the control (no drug added) are counted
(§18) 9. At 24, 48, 72 and 96 hr post drug addition, both drug treated and control cells are counted
(§19) 10. All assay are done in duplicate, two 24-well plates are set up for each drug
(§20) 11. Cell counts obtained from drug treated cultures are compared to those from control cultures.
(§21) 12. The concentration of drug that causes a 50 percent of decrease of cell number as compared to the control at day three (72 hr) is assigned as the CC50 value of the drug.

[6] = cell growth inhibition assay in CEM-SS cells; type: cell-based; conditions: human, cem-ss cells; 50 percent decrease in cell count vs control at day three (72 hours)
Method: as §8, §9, §10, §11, §12, §13, §14, §15, §16, §17, §18, §19, §20, §21

CEM-SS cells [7] = assay: XTT assay, cellular toxicity in uninfected CEM-SS cells; type: cell-based
Method: as §1, §2, §3, §4, §5

[8] = system: human immunodeficiency virus HTLVIIIB strain and MT2 cells; assay: anti-HIV activity, HTLVIIIB strain in MT2 cells (Southern Research Institute); type: cell-based; conditions: Southern Research Institute (footnote g), read-out: ED50 (the source's name)
Method: as §6, §7
(§22) ^g The compound was evaluated by Southern Research Institute using
(§23) human immunodeficiency virus HTLVIIIB strain and MT2 cells (S. Harada, et

MT2 cells = assay: cellular toxicity in uninfected MT2 cells (Southern Research Institute); type: cell-based; conditions: Southern Research Institute (footnote g), read-out: TD50 (the source's name)
Method: as §4, §5, §22, §23

Moloney sarcoma virus = conditions: experimental animals; cited from earlier work
HIV = conditions: in tissue cultures; cited from earlier work
[9] = system: simian immunodeficiency virus (SIV); conditions: experimental animals; cited from earlier work
murine leukemia virus = conditions: experimental animals; cited from earlier work

For `C=CC(Cn1cnc2c(=O)[nH]c(N)nc21)OCP(=O)(O)O` (racemic) [(R,S)-2'vinyl-PMEG, (RS)-9-[2-(phosphonomethoxy)-3-butenyl]guanine], the CC50 at 144 h [1] was > 1000 µM, the “SI (Selectivity Index: Ratio of TD50 to ED50)” value [2] was > 51 and the EC50 [2] was 19.6 µM.
For `[N-]=[N+]=NCC[C@@H](Cn1ccc(N)nc1=O)OCP(=O)(O)O` [(S)-2'-azidoethyl-PMEC, (S)-9-[4-azido-2-(phosphonomethoxy)butyl]cytosine], the CC50 (CEM-SS cells [3]) was > 500 µM and the EC50 ([4]; 8640 min) was > 500 µM.
In the case of `[N-]=[N+]=NC[C@@H](Cn1cnc2c(O)nc(N)nc21)OCP(=O)(O)O` [(R)-2'-azidomethyl-PMEG, (R)-9-[3-azido-2-(phosphonomethoxy)propyl]guanine], the “toxicity in CEM-SS cells when compared to PMEG” value (“toxicity … compared to PMEG” for short) (CEM-SS cells [5]) is reported as “relatively non-toxic”, the CC50 at 72 h [6] is reported as 1400 µM and the observable cytotoxicity (CEM-SS cells [7]) is reported as “no observable cytotoxicity”. The CC50 at 144 h [1] was > 1000 µM, the “SI (Selectivity Index: Ratio of TD50 to ED50)” value [2] was > 200 and the EC50 [2] was 5 µM. The “anti-HIV potency and selectivity as compared to the other compounds” value [2] was “potent and selective anti-HIV agents” and the “cell protection against HIV” value [2] was “cell protection against HIV over a broad concentration”.
For `Cc1cn(C[C@@H](CN=[N+]=[N-])OCP(=O)(O)O)c(=O)[nH]c1=O` [(S)-2'-azidomethyl-PMET, (S)-9-[3-azido-2-(phosphonomethoxy)propyl]thymine], the EC50 [8] was > 500 µM and the CC50 (MT2 cells) was > 500 µM.
In the case of `C=C[C@@H](Cn1cnc2c(O)nc(N)nc21)OCP(=O)(O)O` [(S)-2'-vinyl-PMEG, (S)-9-[2-(phosphonomethoxy)-3-butenyl]guanine], the “toxicity … compared to PMEG” value (CEM-SS cells [5]) is reported as “relatively non-toxic”, the CC50 at 72 h [6] is reported as 1600 µM and the “protection from HIV in CEM-SS cells” value ([2]; at 100 μM, FIG. 2) is reported as “complete protection”.
With `C=C[C@@H](Cn1ccc(N)nc1=O)OCP(=O)(O)O` [(S)-2'-vinyl-PMEC, (S)-9-[2-(phosphonomethoxy)-3-butenyl]cytosine] the CC50 (CEM-SS cells [3]) was > 500 µM and the EC50 ([4]; 8640 min) was > 500 µM.
In the case of `[N-]=[N+]=NCC[C@@H](Cn1cnc2c(O)nc(N)nc21)OCP(=O)(O)O` [(S)-2'-azidoethyl-PMEG, (S)-9-[4-azido-2-(phosphonomethoxy)butyl]guanine], the CC50 at 144 h [1] is reported as > 500 µM and the EC50 ([4]; Human immunodeficiency virus 1, CEM-SS, 144 h) is reported as > 500 µM.
In the case of `[N-]=[N+]=NC[C@H](Cn1ccc(N)nc1=O)OCP(=O)(O)O` [(S)-2'-azidomethyl-PMEC, (S)-9-[3-azido-2-(phosphonomethoxy)propyl]cytosine], the CC50 (CEM-SS cells [3]) is reported as > 500 µM and the EC50 ([4]; 8640 min) is reported as > 500 µM.
With `C=C[C@H](Cn1cnc2c(O)nc(N)nc21)OCP(=O)(O)O` [(R)-2'-vinyl-PMEG, (R)-9-[2-(phosphonomethoxy)-3-butenyl]guanine] the “toxicity … compared to PMEG” value (CEM-SS cells [5]) was “relatively non-toxic”, the CC50 at 72 h [6] was 1600 µM and the observable cytotoxicity (CEM-SS cells [7]) was “no observable cytotoxicity”. For the same compound, the CC50 at 144 h [1] was > 1000 µM, the “protection from the human immunodeficiency virus in CEM-SS cells” value ([2]; concentration range of 5 to 100 μM, FIG. 1) was “complete protection” and the “anti-HIV potency and selectivity as compared to the other compounds” value [2] was “potent and selective anti-HIV agents”. For the same compound, the “cell protection against HIV” value [2] was “cell protection against HIV over a broad concentration”.
For `[N-]=[N+]=NC[C@H](Cn1cnc2c(=O)[nH]c(N)nc21)OCP(=O)(O)O` [(S)-2'-azidomethyl-PMEG, (S)-9-[3-azido-2-(phosphonomethoxy)propyl]guanine], the CC50 at 144 h [1] was > 1000 µM, the “SI (Selectivity Index: Ratio of TD50 to ED50)” value [2] was > 20 and the EC50 [2] was 51 µM.
For `Nc1nc2c(ncn2CCOCP(=O)(O)O)c(=O)[nH]1` [PMEG, 9-[2-(phosphonomethoxy)ethyl]guanine, reference compound], the CC50 at 72 h [6] was 2.4 µM, the cellular toxicity (CEM-SS cells [7]) was “cellular toxicity of PMEG prevents protection from the virus” and the CC50 at 144 h [1] was 15 µM. The “anti-HIV effect in CEM-SS cells” value ([2]; FIG. 7) was “some anti-HIV effect”, the “SI (Selectivity Index: Ratio of TD50 to ED50)” value [2] was 30 and the EC50 [2] was 0.2 µM.
With `[N-]=[N+]=NCC(Cn1cnc2c(=O)[nH]c(N)nc21)OCP(=O)(O)O` (racemic) [(R,S)-2'-azidomethyl-PMEG, (RS)-9-[3-azido-2-(phosphonomethoxy)propyl]guanine] the CC50 at 144 h [1] was > 1000 µM, the “SI (Selectivity Index: Ratio of TD50 to ED50)” value [2] was > 125 and the EC50 [2] was 8 µM.
For `Nc1ncnc2c1ncn2CCOCP(=O)(O)O` [PMEA], the “effect on Moloney sarcoma virus” value (Moloney sarcoma virus) is given as “proven its effect”, the “effect on HIV” value (HIV) is given as “proven its effect” and the “effect on simian immunodeficiency virus (SIV)” value [9] is given as “proven its effect”. The “effect on murine leukemia virus” value (murine leukemia virus) was “proven its effect”.
